# Data: patent US20240307335A1, “IRG Blockade to Armor CAR T Cells Against Myeloid Dysfunction” (ROSWELL PARK CANCER INSTITUTE CORPORATION, priority 2023, published 2024)
# Assays:
# Assay type in all cases: cell-based, mouse
# Eμ-myc cells = assay: Luciferase-based killing assay with CAR T cells isolated from initial coculture; conditions: CAR T cells isolated after 48 h initial coculture with Eμ-myc cells and imMac with agent (L-NIL 50 μM; anti-IFN-γ 10 μg/mL); lysis at 24 h
# Method: CAR T cell isolation from initial coculture for subsequent downstream assays: 1×10^6 CAR T cells and 1×10^6 Eμ-myc-GFP-FFL cells were cocultured in the absence or presence of 0.25×10^6 macrophages in a 6-well plate in 6 ml of media for 48 h. After initial coculture, cells were harvested, and T cells were isolated using Mouse T Cell Isolation Kit ([…] Technologies). […] Percentage of CAR-expressing T cells was determined with flow cytometry and were subsequently used for downstream assays.
# Luciferase-based killing assay: 2×10^4 Eμ-ALL-GFP-FFL cells were cocultured with CAR T cells at different effector-to-target ratios in a 96-well white-walled plate in 100 μl of media. Following incubation, 100 μl luciferase substrate reagent (ONE-Glo Luciferase assay system, Promega) was added to each well. Target cells alone were plated at the same cell density to determine maximum luciferase signals. Emitted luminescence was detected in the microplate reader (GloMax, Promega). Percent lysis was determined as (1−sample signal/maximum signal)×100.
# CAR T cells [1] = assay: Global metabolomics on CAR T cells from cocultures; conditions: L-NIL (50 PM); coculture 48 h
# Method: (§1) CAR T cell isolation from initial coculture for subsequent downstream assays: 1×10^6 CAR T cells and 1×10^6 Eμ-myc-GFP-FFL cells were cocultured in the absence or presence of 0.25×10^6 macrophages in a 6-well plate in 6 ml of media for 48 h. After initial coculture, cells were harvested, and T cells were isolated using Mouse T Cell Isolation Kit (STEMCELL Technologies). T cell purity was 100% as tested by flow cytometry. Percentage of CAR-expressing T cells was determined with flow cytometry and were subsequently used for downstream assays.
# Global metabolomic profiling and 13C6-labeled glucose tracing of CAR T cells, 1×10^6 T cells were resuspended in either RPMI-1640 medium (RPMI+10% heat-inactivated dialyzed FBS) or ^13C6-glucose substituted RPMI-1640 medium (glucose-free RPMI+10% heat-inactivated dialyzed FBS+11.1 mM ^13C6-glucose). After 4 h incubation, cells were collected, rapidly centrifuged (17,000×g, 10 sec, room temperature), and medium was removed. T cells were washed with 1 ml of ice-cold PBS, and metabolites were extracted with 300 μl of 80% methanol via incubation at −80° C. for 15 min. Samples were centrifuged (17,000×g, 20 min, 4° C.), and supernatants were transferred to an Eppendorf tube and dried in a vacuum evaporator overnight. The dried extracts were resuspended in 20 μl of aqueous 50% methanol, clarified by centrifugation (17,000×g, 20 min, room temperature), and analyzed by LC-HRMS.
# LC-HRMS analysis was performed on a Vanquish UPLC coupled with a Q-Exactive HF mass spectrometer, employing the same conditions as the previously established methods 76. A ZIC-pHILIC LC column (4.6 mm inner diameter×150 mm length, […], MilliporeSigma, Burlington, MA) with a ZIC-pHILIC guard column (4.6 mm inner diameter×20 mm length, MilliporeSigma, Burlington, MA) was used for chromatographic separation at a column temperature of 30° C. […]
# CAR T cells [2] = assay: Seahorse assay (ECAR, OCR) on CAR T cells from cocultures; conditions: L-NIL 50 μM; coculture 48 h
# Method: as §1
# Seahorse assay: ECAR and OCR were measured using a Seahorse Extracellular Flux Analyzer (Agilent Technologies). XF96 microplates were coated with CellTak a day before analyses. To assay glycolytic function, T cells were resuspended in glucose-free XF medium supplied with 2 mM L-glutamine and 1 mM sodium pyruvate and seeded at 2×10^5 cells in 180 μl per well. Following incubation in a CO2-free incubator for 60 min at 37° C. for pH stabilization, ECAR was measured in response to 10 mM glucose, 1 μM oligomycin, and 50 mM 2-deoxyglucose. […] Following incubation in a CO2-free incubator for 60 min at 37° C. for pH stabilization, OCR was measured in response to 1 μM oligomycin, 1 μM FCCP, and 0.5 μM rotenone and antimycin.
smiles,measurement,setting,value
"CC(=N)NCCCC[C@H](N)C(=O)O.Cl [L-NIL, N^6-(1-Iminoethyl)-lysine, hydrochloride]",lysis of Eμ-myc cells by CAR T cells (capacity to kill tumor cells),Eμ-myc cells,preserved the capacity of CAR T cells to kill tumor cells
same,depletion of dihydroxyacetone phosphate (DHAP) in CAR T cells cocultured with imMac,CAR T cells [1],reversal
same,"depletion of fructose 1,6-bisphosphate (F1,6BP) in CAR T cells cocultured with imMac",CAR T cells [1],reversal
same,depletion of glyceraldehyde 3-phosphate (G3P) in CAR T cells cocultured with imMac,CAR T cells [1],reversal
same,glycolytic metabolic capacity (ECAR) of CAR T cells from cocultures with imMac,CAR T cells [2],preserved
same,oxidative metabolic capacity (OCR) of CAR T cells from cocultures with imMac,CAR T cells [2],preserved
